Converted amounts (≈) assume the structure as drawn. Non-standard residues stand in square brackets, D forms with d. Residues, ends and D or L forms follow the SMILES beside them. *: point of attachment. Lauroyl = CCCCCCCCCCCC(=O)*; Decanoyl = CCCCCCCCCC(=O)*; Octanoyl = CCCCCCCC(=O)*
What was measured:
Assay type in all cases: cell-based
[1] = system: Staphylococcus aureus ATCC 29213; experiment: MIC, NCCLS M7-A6 broth microdilution, cation-adjusted Mueller Hinton broth (Table 9, no superscript); details: ATCC 29213
How it was run: (§1)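 MIC, read as the lowest peptide concentration without visible growth compared with peptide-free wells, after overnight incubation at 37° C. Wells held cation-adjusted Mueller Hinton broth and a final inoculum of 5×10^5 to 1×10^6 CFU/mL from log-phase culture.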

[2] = system: Escherichia coli ATCC 25922; experiment: MIC, NCCLS M7-A6 broth microdilution (Table 9, no superscript); details: ATCC 25922
How it was run: as §1

[3] = system: Pseudomonas aeruginosa ATCC 27853; experiment: as above; details: ATCC 27853
How it was run: as §1

Salmonella dublin (Lane) = experiment: as above
How it was run: as §1

[4] = system: Staphylococcus epidermidis ATCC 12228; experiment: as above; details: ATCC 12228
How it was run: as §1

[5] = system: Propionibacterium acnes ATCC 6919; experiment: MIC, agar dilution method NCCLS M11-A6, Brucella agar, anaerobic (Table 9, superscript c); details: ATCC 6919
Description: A bacterial suspension was prepared to allow for a final inoculum on the plate of 1.5×10^8 CFU/milliliter. After the suspension absorbed into the agar surface, the plates were incubated for 48-96 hours at 37° C. in a GasPak anaerobic chamber. The lowest concentration of peptide that contained no colony growth on the agar plate was determined as the MIC. MIC values that utilized this method of MIC determination are indicated in Table 9 with a superscript letter “c.”

Row | Compound | MIC S. aureus [1] | MIC E. coli [2] | MIC P. aeruginosa [3] | MIC S. dublin (Salmonella dublin (Lane)) | MIC S. epidermidis [4] | MIC P. acnes [5]
1 | CCCCCCCCCC(=O)N[C@@H](CCCNC(=N)N)C(=O)N[C@@H](CO)C(=O)N[C@@H](CCCNC(=N)N)C(=O)N[C@@H](Cc1c[nH]c2ccccc12)C(=O)N[C@@H](CCCNC(=N)N)C(=O)N[C@@H](CC(=O)O)C(=O)N[C@H](C(=O)N[C@@H](C)C(=O)N[C@@H](CCCNC(=N)N)C(=O)N[C@@H](CC(N)=O)C(=O)N[C@@H](Cc1ccccc1)C(=O)N[C@@H](CCSC)C(=O)N[C@@H](CCCNC(=N)N)C(N)=O)C(C)C [Peptide 204, Decanyl-RSRWRDVARNFMR-NH2] (Decanoyl-RSRWRDVARNFMR-NH2) | 8 mg/L (≈ 4.2 µM) | 8 mg/L (≈ 4.2 µM) | 32 mg/L (≈ 16.8 µM) | 32 mg/L (≈ 16.8 µM) | 2 mg/L (≈ 1.05 µM) | >64c ug/mL
2 | CCCCCCCC(=O)N[C@H](CCCNC(=N)N)C(=O)N[C@H](CO)C(=O)N[C@H](CCCNC(=N)N)C(=O)N[C@H](Cc1c[nH]c2ccccc12)C(=O)N[C@H](CCCNC(=N)N)C(=O)N[C@H](CC(=O)O)C(=O)N[C@@H](C(=O)N[C@H](C)C(=O)N[C@H](CCCNC(=N)N)C(=O)N[C@H](CC(N)=O)C(=O)N[C@H](Cc1ccccc1)C(=O)N[C@H](CCSC)C(=O)N[C@H](CCCNC(=N)N)C(N)=O)C(C)C [Peptide 207, Octyl-rsrwrdvarnfmr-NH2] (Octanoyl-[dR][dS][dR][dW][dR][dD][dV][dA][dR][dN][dF][dM][dR]-NH2) | 16 mg/L (≈ 8.53 µM) | 32 mg/L (≈ 17.1 µM) | 32 mg/L (≈ 17.1 µM) | 64 mg/L (≈ 34.1 µM) | 4 mg/L (≈ 2.13 µM) | 16c ug/mL
3 | CCCCCCCCCC(=O)N[C@H](CCCNC(=N)N)C(=O)N[C@H](CO)C(=O)N[C@H](CCCNC(=N)N)C(=O)N[C@H](Cc1c[nH]c2ccccc12)C(=O)N[C@H](CCCNC(=N)N)C(=O)N[C@H](CC(=O)O)C(=O)N[C@@H](C(=O)N[C@H](C)C(=O)N[C@H](CCCNC(=N)N)C(=O)N[C@H](CC(N)=O)C(=O)N[C@H](Cc1ccccc1)C(=O)N[C@H](CCSC)C(=O)N[C@H](CCCNC(=N)N)C(N)=O)C(C)C [Peptide 208, Decanyl-rsrwrdvarnfmr-NH2] (Decanoyl-[dR][dS][dR][dW][dR][dD][dV][dA][dR][dN][dF][dM][dR]-NH2) | 4 mg/L (≈ 2.1 µM) | >64 mg/L | >64 mg/L | 8 mg/L (≈ 4.2 µM) | >64 mg/L | 2c ug/mL
4 | CCCCCCCCCCCC(=O)N[C@H](CCCNC(=N)N)C(=O)N[C@H](CO)C(=O)N[C@H](CCCNC(=N)N)C(=O)N[C@H](Cc1c[nH]c2ccccc12)C(=O)N[C@H](CCCNC(=N)N)C(=O)N[C@H](CC(=O)O)C(=O)N[C@@H](C(=O)N[C@H](C)C(=O)N[C@H](CCCNC(=N)N)C(=O)N[C@H](CC(N)=O)C(=O)N[C@H](Cc1ccccc1)C(=O)N[C@H](CC(C)C)C(=O)N[C@H](CCCNC(=N)N)C(N)=O)C(C)C [Peptide 210, Lauryl-rsrwrdvarnflr-NH2] (Lauroyl-[dR][dS][dR][dW][dR][dD][dV][dA][dR][dN][dF][dL][dR]-NH2) | 4 mg/L (≈ 2.09 µM) | 8 mg/L (≈ 4.18 µM) | 16 mg/L (≈ 8.36 µM) | 4 mg/L (≈ 2.09 µM) | 2 mg/L (≈ 1.05 µM) | 8c ug/mL
5 | CCCCCCCCCCCC(=O)N[C@H](CCCNC(=N)N)C(=O)N[C@H](CO)C(=O)N[C@H](CCCNC(=N)N)C(=O)N[C@H](Cc1c[nH]c2ccccc12)C(=O)N[C@H](CCCNC(=N)N)C(=O)N[C@H](CC(=O)O)C(=O)N[C@@H](C(=O)N[C@H](C)C(=O)N[C@H](CCCNC(=N)N)C(=O)N[C@H](CC(N)=O)C(=O)N[C@H](Cc1ccccc1)C(=O)N[C@H](CC(C)C)C(N)=O)C(C)C [Peptide 211, Lauryl-rsrwrdvarnfl-NH2] (Lauroyl-[dR][dS][dR][dW][dR][dD][dV][dA][dR][dN][dF][dL]-NH2) | 4 mg/L (≈ 2.28 µM) | 8 mg/L (≈ 4.55 µM) | 64 mg/L (≈ 36.4 µM) | 4 mg/L (≈ 2.28 µM) | 2 mg/L (≈ 1.14 µM) | 4c ug/mL
6 | CCCCCCCCCCCC(=O)N[C@H](CO)C(=O)N[C@H](CCCNC(=N)N)C(=O)N[C@H](Cc1c[nH]c2ccccc12)C(=O)N[C@H](CCCNC(=N)N)C(=O)N[C@H](CC(=O)O)C(=O)N[C@@H](C(=O)N[C@H](C)C(=O)N[C@H](CCCNC(=N)N)C(=O)N[C@H](CC(N)=O)C(=O)N[C@H](Cc1ccccc1)C(=O)N[C@H](CC(C)C)C(=O)N[C@H](CCCNC(=N)N)C(N)=O)C(C)C [Peptide 212, Lauryl-srwrdvarnflr-NH2] (Lauroyl-[dS][dR][dW][dR][dD][dV][dA][dR][dN][dF][dL][dR]-NH2) | 4 mg/L (≈ 2.28 µM) | 8 mg/L (≈ 4.55 µM) | 64 mg/L (≈ 36.4 µM) | 4 mg/L (≈ 2.28 µM) | 2 mg/L (≈ 1.14 µM) | 2c ug/mL
7 | CCCCCCCCCCCC(=O)N[C@H](CCCNC(=N)N)C(=O)N[C@H](CCCCN)C(=O)N[C@H](CCCNC(=N)N)C(=O)N[C@H](Cc1c[nH]c2ccccc12)C(=O)N[C@H](CCCNC(=N)N)C(=O)N[C@H](CC(=O)O)C(=O)N[C@@H](C(=O)N[C@H](C)C(=O)N[C@H](CCCNC(=N)N)C(=O)N[C@H](CC(N)=O)C(=O)N[C@H](Cc1ccccc1)C(=O)N[C@H](CC(C)C)C(=O)N[C@H](CCCNC(=N)N)C(N)=O)C(C)C [Peptide 219, Lauryl-rkrwrdvarnflr-NH2] (Lauroyl-[dR][dK][dR][dW][dR][dD][dV][dA][dR][dN][dF][dL][dR]-NH2) | 4 mg/L (≈ 2.05 µM) | 8 mg/L (≈ 4.09 µM) | 4 mg/L (≈ 2.05 µM) | 4 mg/L (≈ 2.05 µM) | 2 mg/L (≈ 1.02 µM) | 16c ug/mL
8 | CCCCCCCCCCCC(=O)N[C@H](CCCNC(=N)N)C(=O)N[C@H](CCCCN)C(=O)N[C@H](CCCNC(=N)N)C(=O)N[C@H](Cc1c[nH]c2ccccc12)C(=O)N[C@H](CCCNC(=N)N)C(=O)N[C@H](CCC(=O)O)C(=O)N[C@@H](C(=O)N[C@H](C)C(=O)N[C@H](CCCNC(=N)N)C(=O)N[C@H](CC(N)=O)C(=O)N[C@H](Cc1ccccc1)C(=O)N[C@H](CC(C)C)C(=O)N[C@H](CCCNC(=N)N)C(N)=O)C(C)C [Peptide 220, Lauryl-rkrwrevarnflr-NH2] (Lauroyl-[dR][dK][dR][dW][dR][dE][dV][dA][dR][dN][dF][dL][dR]-NH2) | 2 mg/L (≈ 1.02 µM) | 4 mg/L (≈ 2.03 µM) | 8 mg/L (≈ 4.06 µM) | 2 mg/L (≈ 1.02 µM) | 1 mg/L (≈ 0.508 µM) | 16c ug/mL
9 | CCCCCCCCCCCC(=O)N[C@H](CCCNC(=N)N)C(=O)N[C@H](C)C(=O)N[C@H](CCCNC(=N)N)C(=O)N[C@H](Cc1c[nH]c2ccccc12)C(=O)N[C@H](CCCNC(=N)N)C(=O)N[C@H](CC(=O)O)C(=O)N[C@@H](C(=O)N[C@H](C)C(=O)N[C@H](CCCNC(=N)N)C(=O)N[C@H](CC(N)=O)C(=O)N[C@H](Cc1ccccc1)C(=O)N[C@H](CC(C)C)C(=O)N[C@H](CCCNC(=N)N)C(N)=O)C(C)C [Peptide 224, Lauryl-rarwrdvarnflr-NH2] (Lauroyl-[dR][dA][dR][dW][dR][dD][dV][dA][dR][dN][dF][dL][dR]-NH2) | 2 mg/L (≈ 1.05 µM) | 8 mg/L (≈ 4.22 µM) | 16 mg/L (≈ 8.43 µM) | 4 mg/L (≈ 2.11 µM) | 2 mg/L (≈ 1.05 µM) | 32c ug/mL
10 | CCCCCCCCCCCC(=O)N[C@H](CCCNC(=N)N)C(=O)N[C@H](CO)C(=O)N[C@H](CCCNC(=N)N)C(=O)N[C@H](Cc1c[nH]c2ccccc12)C(=O)N[C@H](CCCNC(=N)N)C(=O)N[C@H](C)C(=O)N[C@@H](C(=O)N[C@H](C)C(=O)N[C@H](CCCNC(=N)N)C(=O)N[C@H](CC(N)=O)C(=O)N[C@H](Cc1ccccc1)C(=O)N[C@H](CC(C)C)C(=O)N[C@H](CCCNC(=N)N)C(N)=O)C(C)C [Peptide 225, Lauryl-rsrwravarnflr-NH2] (Lauroyl-[dR][dS][dR][dW][dR][dA][dV][dA][dR][dN][dF][dL][dR]-NH2) | 1 mg/L (≈ 0.535 µM) | 16 mg/L (≈ 8.56 µM) | 16 mg/L (≈ 8.56 µM) | 1 mg/L (≈ 0.535 µM) | 2 mg/L (≈ 1.07 µM) | 8c ug/mL
11 | CCCCCCCCCCCC(=O)N[C@H](CCCNC(=N)N)C(=O)N[C@H](CO)C(=O)N[C@H](CCCNC(=N)N)C(=O)N[C@H](Cc1c[nH]c2ccccc12)C(=O)N[C@H](CCCNC(=N)N)C(=O)N[C@H](CC(=O)O)C(=O)N[C@@H](C(=O)N[C@H](C)C(=O)N[C@H](CCCNC(=N)N)C(=O)N[C@H](C)C(=O)N[C@H](Cc1ccccc1)C(=O)N[C@H](CC(C)C)C(=O)N[C@H](CCCNC(=N)N)C(N)=O)C(C)C [Peptide 226, Lauryl-rsrwrdvaraflr-NH2] (Lauroyl-[dR][dS][dR][dW][dR][dD][dV][dA][dR][dA][dF][dL][dR]-NH2) | 8 mg/L (≈ 4.28 µM) | 16 mg/L (≈ 8.55 µM) | >64 mg/L | 16 mg/L (≈ 8.55 µM) | 4 mg/L (≈ 2.14 µM) | 32c ug/mL
